Experimental data from patent US20070004691A1, “Antitumoral combinations containing et-743 and a cruciferous and a cruciferous indole compound” (priority 2003, published 2007).

How the values were obtained:
[1] = system: rat livers; test: Hepatoprotection by modulators of drug metabolism against ET-743; conditions: compared with dexamethasone
[2] = system: female Wistar rats; test: Study of hepatotoxicity: protection against ET-743-induced liver damage; assay type: in vivo, rat
Protocol: I3C at 0.1 or 0.5% or di-indolyl methane (DIM) at 0.2% were added to the diet of female Wistar rats (230-260 g) seven days prior to treatment with a hepatotoxic dose of ET-743 (40 μg/kg, iv. via the lateral tail vein). This amount constitutes doses equivalent to approximately 80 and 400 mg/kg I3C per day. Control animals received the unaltered diet and/or water as the vehicle for ET-743. The dose of DIM was based on the following consideration: DIM is the product of the condensation of two molecules of I3C, therefore assuming all of the I3C in the 0.5% dose group dimerises to form DIM, the maximal amount of DIM which could theoretically be generated is half of the amount of I3C in the diet. Each treatment group comprised 4 animals. Hepatic changes were studied by assessment of alterations in plasma levels of bilirubin and liver enzymes ALP and aspartate aminotransferase (AST) and by conventional histopathological investigation of liver tissue.

[3] = system: 13762 tumor; test: Study of antitumor activity: 13762 tumor fragments implanted sc; assay type: in vivo, rat; conditions: for tumor weight inhibition (TWI): day 20, I3C 0.5% in diet from implantation, ET-743 40 μg/kg i.v. on day 6, female Fischer rats, weight from caliper diameters; for decrease of terminal tumor weight: tumors excised and weighed at termination of the experiment (day 20), I3C 0.5% diet, ET-743 40 μg/kg i.v.
Protocol: (§1) 13762 tumor fragments (100-200 mg weight) were implanted (sc) into the flank of female Fischer rats (100-120 g). […] Properties of the 13762 tumour have previously been described for example in Braunschweiger P. G., and Schiffer L. M. 1980, J. Natl. Cancer Inst., 64: 671-674: “Growth kinetics of mammary tumor 13762 in rats previously cured by chemotherapy”. Tumor weight (TW) was calculated on each day via tumor diameters, using a Vernier caliper and the formula: TW (in mg)=tumor volume (mm3)=d^2×D/2, in which d and D represent the shortest and longest diameter, respectively. Rats (9-10 per group) received I3C in their diet (0.5%) from the day of tumor implantation to the end of the experiment. ET-743 (40 μg/kg, i.v.) was administered on day 6 post tumor implantation.

[4] = system: female Fischer rats; test: Protection against pathological manifestations of ET-743 in the liver of tumor-bearing Fischer rats; assay type: in vivo; conditions: 0.5% dietary I3C, compared with Wistar rat
Protocol: as §1

[5] = Study of ET-743 levels in liver and plasma (HPLC-ESI-MS/MS); assay type: in vivo, rat; conditions: for AUC of ET-743 in liver (0-24 h after dosing), mean: rat liver; for AUC of ET-743 in plasma (0-24 h after dosing), mean: rat plasma
Protocol: We tested the hypothesis that I3C pretreatment alters clearance of ET-743 from plasma and liver in vivo. Blood samples and liver tissue were collected from rats before and up to 24 h after administration of ET-743 (40 μg/kg iv.) with or without treatment with I3C (0.5% in the diet) given from 6 days prior to ET-743. Blood samples (by cardiac puncture) and liver tissue were collected before and at 0.5, 1, 3, 6, 12 and 24 h post treatment. Blood was placed in heparinized tubes, and plasma was obtained by centrifugation. An aliquot (0.3 ml) was mixed with 0.7 ml ammonium acetate buffer (0.2 M, pH 5.0). Liver tissue was homogenized (1:1) in water. Levels of ET-743 were measured by HPLC coupled to electrospray ionization tandem mass spectrometry in the plasma and liver samples.

[6] = system: human tumour xenografts grown in athymic mice; conditions: including melanoma and ovarian and breast carcinoma; cited from earlier work
[7] = system: mice, rats, dogs and monkeys; conditions: plasma liver-specific enzymes, cholangitis; cited from earlier work
[8] = system: patients; conditions: prolonged infusion over 24-72 hr; cited from earlier work
[9] = system: female rat; conditions: high-dose dexamethasone pretreatment; cited from earlier work
[10] = I3C 0.1% in diet plus ET-743 40 μg/kg iv
[11] = ET-743 alone, 40 μg/kg iv, female Wistar rats
[12] = ET-743 40 μg/kg iv in combination with I3C (0.5% in the diet from 6 days prior)

## CC(=O)N[C@@H](CS)C(=O)O [N-acetylcysteine]
[1]
  amelioration of ET-743 mediated hepatotoxicity: failed to protect

## OCc1c[nH]c2ccccc12 [I3C, 1H-indole-3-methanol]
[2]; I3C 0.1% in diet (approx. 80 mg/kg per day) from seven days prior to ET-743 40 μg/kg iv
  plasma bilirubin levels compared to ET-743 alone: moderately reduced
[2]; [10]
  AST and ALP activity compared with levels induced by ET-743 alone: did not decrease
  pathological manifestations of liver damage compared to ET-743 only: only marginally less severe
[2]; I3C 0.5% in diet (approx. 400 mg/kg per day) plus ET-743 40 μg/kg iv
  protection as reflected by the biochemical indices: complete
[2]; I3C 0.5% in diet plus ET-743 40 μg/kg iv, 3 and 9 days
  protection adjudged on the basis of liver pathology: substantial, albeit not complete
[2]; consumption of I3C on its own in the diet
  weight of the animals or liver function (biochemical indices or pathology): did not affect
[3]
  tumor weight inhibition (TWI): 35%
  decrease of terminal tumor weight: 43%
[4]
  protection against the pathological manifestations of ET-743 in the liver: same degree of protection

## COc1cc2c(cc1O)CCN[C@]21CS[C@@H]2c3c(OC(C)=O)c(C)c4c(c3[C@H](COC1=O)N1C2C2c3c(cc(C)c(OC)c3O)C[C@@H]([C@@H]1O)N2C)OCO4 (stereo partly shown) [ET-743, Ecteinascidin 743]
[2]; [11]
  activities of ALP and AST: elevated
  plasma levels of bilirubin: dramatically raised
[2]; ET-743 alone, 40 μg/kg iv, day 3 and day 9
  liver pathology: severe bile duct damage on day 3 and biliary sclerosis on day 9
[3]
  tumor weight inhibition (TWI): 62%
  decrease of terminal tumor weight: 54%
[5]; [12]
  AUC of ET-743 in liver (0-24 h after dosing), mean: 563 ngxh/ml
  AUC of ET-743 in plasma (0-24 h after dosing), mean: 1.9 ngxh/ml
[5]; ET-743 alone, 40 μg/kg iv
  AUC of ET-743 in liver (0-24 h after dosing), mean: 280 ngxh/ml
  AUC of ET-743 in plasma (0-24 h after dosing), mean: 4.7 ngxh/ml
[6]
  antineoplastic activity: potent
[7]
  side effect in preclinical acute toxicity studies: liver toxicity
[8]
  side effects in patients: myelotoxic and hepatotoxic

## C[C@@H]1C[C@H]2[C@@H]3CCC4=CC(=O)C=C[C@]4(C)[C@@]3(F)[C@@H](O)C[C@]2(C)[C@@]1(O)C(=O)CO [dexamethasone]
[9]
  hepatic levels of ET-743 after pretreatment: dramatic reduction

## O=c1cc(-c2ccccc2)oc2ccc3ccccc3c12 [β-naphthoflavone]
[1]
  amelioration of ET-743 mediated hepatotoxicity: persisted only for a short term

## CCC1(c2ccccc2)C(=O)NC(=O)NC1=O [phenobarbitone]
[1]
  amelioration of ET-743 mediated hepatotoxicity: weak
